Experimental data published in patent US9163256B2, “Mutant receptors and their use in a nuclear receptor-based inducible gene expression system” (priority 2004, dated 2015).

What was measured:
CfEcR-DEF mutant V96L = CfEcR-DEF mutant V96L (Choristoneura fumiferana, UniProt O77255, V379L); test: cell-based
Method: (§1) This construct was prepared in the same way as in switch 1.1 above except wild-type CfEcR-DEF was replaced with mutant CfEcR-DEF comprising a ligand binding domain comprising a substitution mutation selected from Table 1 below.
(§2) DNAs were transfected into mouse NIH3T3 cells (ATCC) as follows. Standard methods for culture and maintenance of the cells were followed. Cells were harvested and plated 96-well plates at 2,500 cells per well, in 50 μL of growth medium containing 10% fetal bovine serum (FBS). Twenty-four hours later, the cells were treated with 35 μL of serum-free growth medium containing either dimethylsulfoxide (DMSO; control) or a DMSO solution of ligand. The cells were then transfected using Superfect (Qiagen Inc.) transfection reagent. For each well, 0.625 μL of Superfect was mixed with 14.2 μL of serum-free growth medium. 0.16 μg of reporter construct and 0.04 μg of each receptor construct were added to the transfection reagent mix. The contents of the transfection mix were mixed in a vortex mixer and let stand at room temperature for 30 minutes. At the end of incubation, 15 μL of transfection mix was added to the cells. The cells were maintained at 37° C. and 5% CO2 for 48 hours in 5% FBS.
(§3) Reporter Assays: Cells were harvested 40 hours after adding ligands. 125 μL of passive lysis buffer (part of Dual-Luciferase reporter assay system from Promega Corporation) were added to each well of the […] plate. The plates were placed on a rotary shaker for 15 minutes. Twenty μL of lysate were assayed. Luciferase activity was measured using Dual-Luciferase reporter assay system from Promega Corporation following the manufacturer's instructions. Fold induction (FI) activities were calculated by dividing relative light units (“RLU”) in ligand treated cells with RLU in DMSO treated cells (untreated control).

CfEcR-DEF mutant L234I = CfEcR-DEF mutant L234I (Choristoneura fumiferana, UniProt O77255, L517I); test: cell-based
CfEcR-DEF mutant L234I, sequence (P28702 299-449): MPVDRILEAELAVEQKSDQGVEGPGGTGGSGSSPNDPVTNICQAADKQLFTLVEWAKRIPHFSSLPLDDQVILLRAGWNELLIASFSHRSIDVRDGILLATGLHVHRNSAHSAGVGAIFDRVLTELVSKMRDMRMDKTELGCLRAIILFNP
CfEcR-DEF mutant L234I, sequence (O77255 entry or part of it L517I): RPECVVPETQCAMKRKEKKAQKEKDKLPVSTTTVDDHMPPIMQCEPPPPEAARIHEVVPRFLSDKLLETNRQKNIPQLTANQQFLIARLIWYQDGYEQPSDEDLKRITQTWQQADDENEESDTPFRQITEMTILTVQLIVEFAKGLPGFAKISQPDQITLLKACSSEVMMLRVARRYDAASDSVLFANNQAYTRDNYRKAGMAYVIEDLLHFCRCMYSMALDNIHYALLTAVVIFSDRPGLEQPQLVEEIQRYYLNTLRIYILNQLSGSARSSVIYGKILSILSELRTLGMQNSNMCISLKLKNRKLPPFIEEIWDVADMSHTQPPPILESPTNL
Method: as §1, §2, §3

CfEcR-DEF mutant M54T = CfEcR-DEF mutant M54T (Choristoneura fumiferana, UniProt O77255, M337T); test: cell-based
CfEcR-DEF mutant M54T, sequence (O77255 entry or part of it M337T): as the sequence (O77255 entry or part of it L517I) above, with M131T, I311L counted along it
CfEcR-DEF mutant M54T, sequence (P28702 299-449, further chain): as the sequence (P28702 299-449) above
Method: as §1, §2, §3

CfEcR-DEF mutant R95H = CfEcR-DEF mutant R95H (Choristoneura fumiferana, UniProt O77255, R378H); test: cell-based
CfEcR-DEF mutant R95H, sequence (P28702 299-449): as above
CfEcR-DEF mutant R95H, sequence (O77255 entry or part of it R378H): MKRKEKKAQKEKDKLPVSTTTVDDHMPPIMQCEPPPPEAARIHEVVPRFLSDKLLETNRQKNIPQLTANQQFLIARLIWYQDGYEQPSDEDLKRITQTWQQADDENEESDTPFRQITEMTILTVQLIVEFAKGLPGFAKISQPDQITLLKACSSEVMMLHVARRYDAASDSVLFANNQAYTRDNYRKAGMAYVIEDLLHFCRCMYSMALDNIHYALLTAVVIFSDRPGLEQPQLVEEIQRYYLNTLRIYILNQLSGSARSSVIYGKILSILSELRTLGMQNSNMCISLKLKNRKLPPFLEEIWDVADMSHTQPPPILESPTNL
Method: as §1, §2, §3

CfEcR-DEF mutant M125L = CfEcR-DEF mutant M125L (Choristoneura fumiferana, UniProt O77255, M408L); test: cell-based
CfEcR-DEF mutant M125L, sequence (P28702 299-449): as the sequence (P28702 299-449) above
CfEcR-DEF mutant M125L, sequence (O77255 entry or part of it M408L): as the sequence (O77255 entry or part of it R378H) above, with H160R, M190L counted along it
Method: as §1, §2, §3

CfEcR-DEF mutant R95M = CfEcR-DEF mutant R95M (Choristoneura fumiferana, UniProt O77255, R378M); test: cell-based
CfEcR-DEF mutant R95M, sequence (P28702 299-449): as the sequence (P28702 299-449) above
CfEcR-DEF mutant R95M, sequence (O77255 entry or part of it R378M): as the sequence (O77255 entry or part of it R378H) above, with H160M counted along it
Method: as §1, §2, §3

CfEcR-DEF mutant T52L = CfEcR-DEF mutant T52L (Choristoneura fumiferana, UniProt O77255, T335L); test: cell-based
CfEcR-DEF mutant T52L, sequence (P28702 298-449): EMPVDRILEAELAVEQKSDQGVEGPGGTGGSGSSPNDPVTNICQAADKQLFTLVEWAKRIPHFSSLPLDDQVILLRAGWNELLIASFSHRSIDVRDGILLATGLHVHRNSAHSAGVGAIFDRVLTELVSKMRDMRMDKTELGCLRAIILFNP
CfEcR-DEF mutant T52L, sequence (O77255 entry or part of it T335L): as the sequence (O77255 entry or part of it L517I) above, with T129L, I311L counted along it
Method: as §1, §2, §3

CfEcR-DEF mutant W238Y = CfEcR-DEF mutant W238Y (Choristoneura fumiferana, UniProt O77255, W521Y); test: cell-based
CfEcR-DEF mutant W238Y, sequence (P28702 299-449): as the sequence (P28702 299-449) above
CfEcR-DEF mutant W238Y, sequence (O77255 entry or part of it W521Y): as the sequence (O77255 entry or part of it R378H) above, with H160R, W303Y counted along it
Method: as §1, §2, §3

CfEcR-DEF mutant M92L = CfEcR-DEF mutant M92L (Choristoneura fumiferana, UniProt O77255, M375L); test: cell-based
CfEcR-DEF mutant M92L, sequence (O77255 entry or part of it M375L): as the sequence (O77255 entry or part of it R378H) above, with M157L, H160R counted along it
CfEcR-DEF mutant M92L, sequence (P28702 299-449, further chain): as the sequence (P28702 299-449) above
Method: as §1, §2, §3

CfEcR-DEF mutant I51L = CfEcR-DEF mutant I51L (Choristoneura fumiferana, UniProt O77255, I334L); test: cell-based
CfEcR-DEF mutant I51L, sequence (O77255 entry or part of it I334L): as the sequence (O77255 entry or part of it L517I) above, with I128L, I311L counted along it
CfEcR-DEF mutant I51L, sequence (P28702 299-449, further chain): as the sequence (P28702 299-449) above
Method: as §1, §2, §3

CfEcR-DEF mutant T52E = CfEcR-DEF mutant T52E (Choristoneura fumiferana, UniProt O77255, T335E); test: cell-based
CfEcR-DEF mutant T52E, sequence (O77255 entry or part of it T335E): as the sequence (O77255 entry or part of it R378H) above, with T117E, H160R counted along it
CfEcR-DEF mutant T52E, sequence (P28702 299-449, further chain): as the sequence (P28702 299-449) above
Method: as §1, §2, §3

[1] = target: CfEcR-DEF mutant V107I/Y127E/A110P (Choristoneura fumiferana, UniProt O77255, A393P/V390I/Y410E); test: cell-based
CfEcR-DEF mutant V107I/Y127E/A110P, sequence (P28702 299-449, stated change not applied): as the sequence (P28702 299-449) above
CfEcR-DEF mutant V107I/Y127E/A110P, sequence (O77255 entry or part of it V390I/A393P/Y410E): as the sequence (O77255 entry or part of it R378H) above, with H160R, V172I, A175P, Y192E counted along it
Method: as §1, §2, §3

CfEcR-DEF mutant F109L = CfEcR-DEF mutant F109L (Choristoneura fumiferana, UniProt O77255, F392L); test: cell-based
CfEcR-DEF mutant F109L, sequence (P28702 299-449): as the sequence (P28702 299-449) above
CfEcR-DEF mutant F109L, sequence (O77255 entry or part of it F392L): as the sequence (O77255 entry or part of it L517I) above, with F186L, I311L counted along it
Method: as §1, §2, §3

CfEcR-DEF mutant M92E = CfEcR-DEF mutant M92E (Choristoneura fumiferana, UniProt O77255, M375E); test: cell-based
CfEcR-DEF mutant M92E, sequence (P28702 299-449): as the sequence (P28702 299-449) above
CfEcR-DEF mutant M92E, sequence (O77255 entry or part of it M375E): as the sequence (O77255 entry or part of it L517I) above, with M169E, I311L counted along it
Method: as §1, §2, §3

[2] = target: CfEcR-DEF mutant V128F/A110P (Choristoneura fumiferana, UniProt O77255, A393P/V411F); test: cell-based
CfEcR-DEF mutant V128F/A110P, sequence (P28702 299-449, stated change not applied): as the sequence (P28702 299-449) above
CfEcR-DEF mutant V128F/A110P, sequence (O77255 entry or part of it A393P/V411F): as the sequence (O77255 entry or part of it R378H) above, with H160R, A175P, V193F counted along it
Method: as §1, §2, §3

CfEcR-DEF mutant V96S = CfEcR-DEF mutant V96S (Choristoneura fumiferana, UniProt O77255, V379S); test: cell-based
CfEcR-DEF mutant V96S, sequence (O77255 entry or part of it V379S): as the sequence (O77255 entry or part of it R378H) above, with H160R, V161S counted along it
CfEcR-DEF mutant V96S, sequence (P28702 299-449, further chain): as the sequence (P28702 299-449) above
Method: as §1, §2, §3

CfEcR-DEF mutant M125R = CfEcR-DEF mutant M125R (Choristoneura fumiferana, UniProt O77255, M408R); test: cell-based
CfEcR-DEF mutant M125R, sequence (P28702 299-449): as above
CfEcR-DEF mutant M125R, sequence (O77255 entry or part of it M408R): as the sequence (O77255 entry or part of it R378H) above, with H160R, M190R counted along it
Method: as §1, §2, §3

CfEcR-DEF mutant M125E = CfEcR-DEF mutant M125E (Choristoneura fumiferana, UniProt O77255, M408E); test: cell-based
CfEcR-DEF mutant M125E, sequence (O77255 entry or part of it M408E): as the sequence (O77255 entry or part of it L517I) above, with M202E, I311L counted along it
CfEcR-DEF mutant M125E, sequence (P28702 299-449, further chain): as the sequence (P28702 299-449) above
Method: as §1, §2, §3

[3] = target: CfEcR-DEF mutant V107I/Y127E/G (Choristoneura fumiferana, UniProt O77255, INS541G/V390I/Y410E); test: GAL4-driven luciferase reporter assay in NIH3T3 cells; format: cell-based
CfEcR-DEF mutant V107I/Y127E/G, sequence (P28702 299-449, stated change not applied): as the sequence (P28702 299-449) above
CfEcR-DEF mutant V107I/Y127E/G, sequence (O77255 entry or part of it V390I/Y410E/INS541G): as the sequence (O77255 entry or part of it R378H) above, with H160R counted along it
Method: as §1
The Gal-4-CfEcR-DEF(VYG) mutant was created by inserting an extra glycine at the C-terminal end of EcR substitution mutant V107I/Y127E [CfECR(VY)] by PCR. Essentially, this was done in two steps: PCR-amplification of CfEcR-DEF(VYG) and substitution of the CfEcR(VY) in the vector GAL4-CfEcR DEF(VY) pBIND 1-9 with the PCR-amplified CfEcR-DEF(VYG). The CfEcR-DEF region (with the extra glycine) was amplified by using the vector GAL4-CfEcR DEF(VY) pBIND 1-9 as template and the following PCR primers: […]
as §2, §3

[4] = NIH3T3, 40 h, read-out: Rel Max FI
[5] = NIH3T3, mouse, 40 h, read-out: GS-E ligand max FI (relative to DMSO)

CfEcR-DEF mutant V96L, sequence (O77255 entry or part of it V379L): as the sequence (O77255 entry or part of it R378H) above, with H160R, V161L counted along it
CfEcR-DEF mutant V96L, sequence (P28702 299-449, further chain): as the sequence (P28702 299-449) above

For `CCc1c(OC)cccc1C(=O)NN(C(=O)c1cc(C)cc(C)c1)C(C)(C)C` [RG-102240, N-(2-ethyl-3-methoxybenzoyl)-N′-(3,5-dimethylbenzoyl)-N′-tert-butylhydrazine], the EC50 (CfEcR-DEF mutant V96L) was about 1000 nM, the Emax (CfEcR-DEF mutant V96L; [4]) was 100% and the maximal fold induction (CfEcR-DEF mutant V96L; [5]) was 4380. For the same compound, the “Concentration (mM) at max FI” value (CfEcR-DEF mutant V96L; mutant V96L, GS-E ligand) was 10 mM, the EC50 (CfEcR-DEF mutant L234I) was 770 nM and the Emax (CfEcR-DEF mutant L234I; [4]) was 100%. For the same compound, the maximal fold induction (CfEcR-DEF mutant L234I; [5]) was 2650, the “Concentration (mM) at max FI” value (CfEcR-DEF mutant L234I; mutant L234I, GS-E ligand) was 10 mM and the EC50 (CfEcR-DEF mutant M54T) was 80 nM. The Emax (CfEcR-DEF mutant M54T; [4]) was 100%, the maximal fold induction (CfEcR-DEF mutant M54T; [5]) was 4460 and the “Concentration (mM) at max FI” value (CfEcR-DEF mutant M54T; mutant M54T, GS-E ligand) was 10.00 mM. The EC50 (CfEcR-DEF mutant R95H) was 1580 nM, the Emax (CfEcR-DEF mutant R95H; [4]) was 100% and the maximal fold induction (CfEcR-DEF mutant R95H; [5]) was 3410. The “Concentration (mM) at max FI” value (CfEcR-DEF mutant R95H; mutant R95H, GS-E ligand) was 33.30 mM, the EC50 (CfEcR-DEF mutant M125L) was about 10000 nM and the Emax (CfEcR-DEF mutant M125L; [4]) was 100%. For the same compound, the maximal fold induction (CfEcR-DEF mutant M125L; [5]) was 2250, the “Concentration (mM) at max FI” value (CfEcR-DEF mutant M125L; mutant M125L, GS-E ligand) was 0.0333 mM and the EC50 (CfEcR-DEF mutant R95M) was 2760 nM. The Emax (CfEcR-DEF mutant R95M; [4]) was 100%, the maximal fold induction (CfEcR-DEF mutant R95M; [5]) was 1690 and the “Concentration (mM) at max FI” value (CfEcR-DEF mutant R95M; mutant R95M, GS-E ligand) was 33.30 mM. It also gave an EC50 (CfEcR-DEF mutant T52L) of about 500 nM, an Emax (CfEcR-DEF mutant T52L; [4]) of 100% and a maximal fold induction (CfEcR-DEF mutant T52L; [5]) of 1130. The “Concentration (mM) at max FI” value (CfEcR-DEF mutant T52L; mutant T52L, GS-E ligand) was 33.3 mM, the EC50 (CfEcR-DEF mutant W238Y) was about 13000 nM and the Emax (CfEcR-DEF mutant W238Y; [4]) was 100%. For the same compound, the maximal fold induction (CfEcR-DEF mutant W238Y; [5]) was 11, the “Concentration (mM) at max FI” value (CfEcR-DEF mutant W238Y; mutant W238Y, GS-E ligand) was 0.0333 mM and the EC50 (CfEcR-DEF mutant M92L) was about 8000 nM. For the same compound, the Emax (CfEcR-DEF mutant M92L; [4]) was 100%, the maximal fold induction (CfEcR-DEF mutant M92L; [5]) was 1200 and the “Concentration (mM) at max FI” value (CfEcR-DEF mutant M92L; mutant M92L, GS-E ligand) was 33.30 mM. For the same compound, the EC50 (CfEcR-DEF mutant I51L) was 3200 nM, the Emax (CfEcR-DEF mutant I51L; [4]) was 100% and the maximal fold induction (CfEcR-DEF mutant I51L; [5]) was 2480. The “Concentration (mM) at max FI” value (CfEcR-DEF mutant I51L; mutant I51L, GS-E ligand) was 33.30 mM, the EC50 (CfEcR-DEF mutant T52E) was about 7000 nM and the Emax (CfEcR-DEF mutant T52E; [4]) was 100%. For the same compound, the maximal fold induction (CfEcR-DEF mutant T52E; [5]) was 1540, the “Concentration (mM) at max FI” value (CfEcR-DEF mutant T52E; mutant T52E, GS-E ligand) was 33.3 mM and the EC50 [1] was 300 nM. For the same compound, the Emax [1, 4] was 100%, the maximal fold induction [1, 5] was 2210 and the “Concentration (mM) at max FI” value ([1]; mutant V107I/Y127E/A110P, GS-E ligand) was 10 mM. It also gave an EC50 (CfEcR-DEF mutant F109L) of about 2000 nM, an Emax (CfEcR-DEF mutant F109L; [4]) of 100% and a maximal fold induction (CfEcR-DEF mutant F109L; [5]) of 20. For the same compound, the “Concentration (mM) at max FI” value (CfEcR-DEF mutant F109L; mutant F109L, GS-E ligand) was 33.30 mM, the EC50 (CfEcR-DEF mutant M92E) was about 8000 nM and the Emax (CfEcR-DEF mutant M92E; [4]) was 100%. The maximal fold induction (CfEcR-DEF mutant M92E; [5]) was 141, the “Concentration (mM) at max FI” value (CfEcR-DEF mutant M92E; mutant M92E, GS-E ligand) was 0.0333 mM and the EC50 [2] was about 8000 nM. The Emax [2, 4] was 100%, the maximal fold induction [2, 5] was 2960 and the “Concentration (mM) at max FI” value ([2]; mutant V128F/A110P, GS-E ligand) was 33.30 mM. It also gave an EC50 (CfEcR-DEF mutant V96S) of 1140 nM, an Emax (CfEcR-DEF mutant V96S; [4]) of 100% and a maximal fold induction (CfEcR-DEF mutant V96S; [5]) of 1830. For the same compound, the “Concentration (mM) at max FI” value (CfEcR-DEF mutant V96S; mutant V96S, GS-E ligand) was 33.3 mM, the EC50 (CfEcR-DEF mutant M125R) was 3700 nM and the Emax (CfEcR-DEF mutant M125R; [4]) was 0%. For the same compound, the maximal fold induction (CfEcR-DEF mutant M125R; [5]) was 2410, the “Concentration (mM) at max FI” value (CfEcR-DEF mutant M125R; mutant M125R, GS-E ligand) was 33.3 mM and the EC50 (CfEcR-DEF mutant M125E) was about 2000 nM. For the same compound, the Emax (CfEcR-DEF mutant M125E; [4]) was 100%, the maximal fold induction (CfEcR-DEF mutant M125E; [5]) was 1200 and the “Concentration at max FI” value (CfEcR-DEF mutant M125E; mutant M125E, GS-E ligand) was 33.3 mM. For the same compound, the EC50 [3] was 170 nM and the Emax [3, 4] was 100%.
